For test [1], the system named is Candida albicans. The test can be described thus: Antifungal activity against Candida albicans CAI4 at 6 ug/disk after 24 hrs by disk diffusion assay. The test is classed as functional. To be noted: CAI4, 24 h, read-out: DIZ. (In general: A growth-free zone around the sample is the usual read-out of agar diffusion tests.)
For test [2], the system named is DC3F/ADX. The test can be described thus: Binding affinity to P-gp isolated from chinese hamster DC3F/ADX cells assessed as increase in ADP formation by drug-P-gp interaction assay relative to basal. The format is cell-free. Conditions: Cricetulus griseus.
In test [3] the test system is Candida albicans. The test can be described thus: Antifungal activity against Candida albicans CAI4 after 48 hrs. The test is classed as functional. To be noted: CAI4, 48 h.
The subject of test [4] is Candida albicans. The test can be described thus: Antifungal activity against Candida albicans CAI4 at 0.2 mg/ml after 48 hrs by spot assay. The test is classed as functional, organism-based.
In test [5] the test system is Candida albicans. The test can be described thus: Antifungal activity against Candida albicans CAI4 at 0.5 mg/ml after 48 hrs by spot assay. The test is classed as functional, organism-based.
For test [6], the system named is Candida albicans. The test can be described thus: Inhibition of cell-wall integrity in Candida albicans CAI4 assessed as increase in Rhodamine-6G efflux at 230 ug/ml in absence of glucose. The format is functional, organism-based.
Test [7] relates to Candida albicans. The test can be described thus: Inhibition of cell-wall integrity in Candida albicans CAI4 assessed as increase in Rhodamine-6G influx at 230 ug/ml. The test is classed as functional, organism-based.
The subject of test [8] is Candida albicans. The test can be described thus: Inhibition of cell-wall integrity in Candida albicans CAI4 assessed as ratio of glucose/ATP-driven Rhodamine-6G efflux to Rhodamine-6G efflux in absence of glucose/ATP at 230 ug/ml relative to control. The test is classed as functional, organism-based.
Test [9] concerns Candida albicans. The test can be described thus: Antifungal activity against Candida albicans CAI4 at 200 ug/disk after 24 hrs by disk diffusion assay. The test is classed as functional. To be noted: CAI4, 24 h, read-out: DIZ.
The subject of test [10] is DC3F/ADX. The test can be described thus: Binding affinity to P-gp isolated from chinese hamster DC3F/ADX cells assessed as increase in ADP formation at 0.05 uM by drug-P-gp interaction assay relative to basal. The format is cell-free. Conditions: Cricetulus griseus.
Test [11] concerns Candida albicans. The test can be described thus: Antifungal activity against Candida albicans CAI4 at 160 ug/ml in presence of cell-wall toxin CR. The format is functional, organism-based.
For test [12], the system named is Candida albicans. The test can be described thus: Antifungal activity against Candida albicans CAI4 at 0.313 mg/ml after 48 hrs by spot assay. The format is functional, organism-based.
Test [13] concerns Candida albicans. The test can be described thus: Antifungal activity against Candida albicans CAI4 at 160 ug/ml in presence of cell-wall toxin CFW. The test is classed as functional, organism-based.

In brackets after ≈: the same amount, converted by molar mass. Activity calls are given as the source filed them. No cut-off for these calls is given here.

As to `Clc1ccc(COC(Cn2ccnc2)c2ccc(Cl)cc2Cl)c(Cl)c1` (configuration not stated) [MICONAZOLE], the zone of inhibition at 6 µg/disc with Candida albicans [1] amounted to 12 mm.

As to `Cc1cccc2c1c(=O)c1ccccc1n2CC(O)CN1CCC(N2CCCCC2)CC1` (configuration not stated), the result in the test with DC3F/ADX [2] was Active.

As to `O=C(O)c1cccc2c(=O)c3ccccc3n(CC3CO3)c12` (configuration not stated), the outcome in the test with DC3F/ADX [2] was Active.

For the molecule `Cc1cccc2c1c(=O)c1ccccc1n2CC(O)CN1CCCC1` (configuration not stated), the result with DC3F/ADX [2] was Active.

Regarding `Cc1cccc2c1c(=O)c1ccccc1n2CC(O)CN1CCCCC1` (configuration not stated), the outcome in the test on DC3F/ADX [2] was Active.

Regarding `O=C(O)c1cccc2c(=O)c3ccccc3n(CC(O)CN3CCOCC3)c12` (configuration not stated), in the test with DC3F/ADX [2], the outcome was Active. Further, the MIC80 (commonly the lowest concentration that inhibits either 80% of growth or 80% of the strains tested, depending on the study) in the test on Candida albicans [3] is 132 µg/mL (≈ 345 µM). The result in the test with Candida albicans [4] and in the test with Candida albicans [5] was inactive.

With `O=C(O)c1cccc2c(=O)c3ccccc3n(CC(O)CN3CCC(N4CCCCC4)CC3)c12` (configuration not stated), the outcome in the test on Candida albicans [6], in the test on Candida albicans [7], with DC3F/ADX [2], in the test on Candida albicans [11], in the test with Candida albicans [12] and with Candida albicans [13] was Active. The outcome in the test on Candida albicans [8] was inactive. In the test on Candida albicans [9], the zone of inhibition at 200 µg/disc was found to be 10 mm. Also, the Activity in the test on DC3F/ADX [10] was 33%. In the test on Candida albicans [3], this molecule returned an MIC80 of 234 µg/mL (≈ 505 µM).

As to `O=C(O)c1cccc2c(=O)c3ccccc3[nH]c12`, in the test with DC3F/ADX [2], the outcome was Active.

On to `Cc1cccc2c1c(=O)c1ccccc1n2CC(O)CN1CCOCC1` (configuration not stated), for which, in the test on DC3F/ADX [2], the outcome was Active.

Turning to `OC(Cn1cncn1)(Cn1cncn1)c1ccc(F)cc1F` [FLUCONAZOLE], the zone of inhibition at 6 µg/disc in the test with Candida albicans [1] was determined as 15 mm.

Regarding `O=C(O)c1cccc2c(=O)c3ccccc3n(CC(O)CN3CCCCC3)c12` (configuration not stated), in the test on DC3F/ADX [2], the result was Active. The same molecule had an MIC80 against Candida albicans [3] of 405 µg/mL (≈ 1060 µM). The outcome in the test with Candida albicans [4] and in the test on Candida albicans [5] was inactive.

Regarding `O=C(O)c1cccc2c(=O)c3ccccc3n(CC(O)CN3CCCC3)c12` (configuration not stated), the result in the test on DC3F/ADX [2] was Active.
